For series [1], the target named is T1, Aromatase (Homo sapiens, UniProt P11511).
T1 sequence (P11511 whole entry): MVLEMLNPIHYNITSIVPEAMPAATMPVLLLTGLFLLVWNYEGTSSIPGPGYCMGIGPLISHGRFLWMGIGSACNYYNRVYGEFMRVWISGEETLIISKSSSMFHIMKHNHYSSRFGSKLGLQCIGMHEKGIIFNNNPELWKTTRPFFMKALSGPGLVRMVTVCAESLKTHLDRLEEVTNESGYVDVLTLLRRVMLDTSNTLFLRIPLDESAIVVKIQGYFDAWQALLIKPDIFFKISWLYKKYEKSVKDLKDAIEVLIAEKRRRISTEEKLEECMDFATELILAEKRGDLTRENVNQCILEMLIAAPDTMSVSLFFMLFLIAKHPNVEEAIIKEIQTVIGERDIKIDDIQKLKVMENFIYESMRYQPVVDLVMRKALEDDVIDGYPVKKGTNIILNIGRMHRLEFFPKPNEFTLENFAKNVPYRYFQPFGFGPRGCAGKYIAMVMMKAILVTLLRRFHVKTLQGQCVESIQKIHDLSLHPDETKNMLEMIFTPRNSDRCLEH
Description: Inhibition of cytochrome P450 19A1 of human placental microsomes with [1-beta,2beta-3H]testosterone

The target in series [2] is T2, Cytochrome P450 17A1 (steroid 17-alpha-hydroxylase/17,20 lyase) (Rattus norvegicus, UniProt P11715).
T2 sequence (P11715 whole entry): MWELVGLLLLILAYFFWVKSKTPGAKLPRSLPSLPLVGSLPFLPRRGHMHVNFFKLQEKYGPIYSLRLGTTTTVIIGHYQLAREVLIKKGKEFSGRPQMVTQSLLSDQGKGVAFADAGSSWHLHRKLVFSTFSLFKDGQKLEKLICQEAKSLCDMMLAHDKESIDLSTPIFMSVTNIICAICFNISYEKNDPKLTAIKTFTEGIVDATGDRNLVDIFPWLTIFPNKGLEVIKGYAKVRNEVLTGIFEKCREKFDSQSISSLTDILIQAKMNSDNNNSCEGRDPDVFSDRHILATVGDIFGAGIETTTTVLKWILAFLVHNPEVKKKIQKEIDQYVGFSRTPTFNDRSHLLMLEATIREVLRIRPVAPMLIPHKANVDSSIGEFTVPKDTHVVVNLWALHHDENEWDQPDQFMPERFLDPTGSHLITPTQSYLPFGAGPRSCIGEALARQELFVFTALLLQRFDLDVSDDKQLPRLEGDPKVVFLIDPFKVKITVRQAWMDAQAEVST
Put plainly: Inhibition Cytochrome P450 17A1 of rat testicular microsomes at 2.5 uM with 25 uM progesterone. To be noted: probe progesterone (25 uM).

The target in series [3] is T1, Aromatase. Put plainly: In vitro inhibition of cytochrome P450 19A1 from human placental microsomes with 2.5 uM [1-beta,2beta-3H]testosterone.
Series [4] deals with T1, Aromatase. Put plainly: Relative potency as IC50 compared to aminoglutethimide IC50=[…] uM.

Take `CCn1ccc2cccc(C(c3ccc(Br)cc3)n3ccnc3)c21` (stereo unspecified): on Aromatase [1], the IC50 (commonly the concentration that inhibits the measured activity by half) was 70 nM. Further, the inhibition (commonly the share of the control response that was lost under treatment) at 2.5 µM in series [2] amounted to 29%.

For `CCN1CCc2cc(Br)cc(C(c3ccc(F)cc3)n3ccnc3)c21` (stereo unspecified), the IC50 against Aromatase [1] amounted to 90 nM. In series [2], this molecule registered an inhibition at 2.5 µM of 8%. Molecule `CCn1ccc2cccc(C(c3cccc(Cl)c3)n3ccnc3)c21` (stereo unspecified) had an inhibition at 2.5 µM in series [2] of 43%. The molecule `CCN1CCc2cccc(C(c3cccc(Cl)c3)n3ccnc3)c21` (stereo unspecified) registered an inhibition at 2.5 µM in series [2] of 38%.

Molecule `CCN1CCc2cc(Cl)cc(C(c3ccc(F)cc3)n3ccnc3)c21` (stereo unspecified) gave an inhibition at 2.5 µM in series [2] of 23%. For `CCn1ccc2cccc(C(c3ccc(Cl)cc3)n3ccnc3)c21` (stereo unspecified), the inhibition at 2.5 µM in series [2] is 29%. As for `CCN1CCc2cccc(C(c3ccc(F)cc3)n3ccnc3)c21` (stereo unspecified), the IC50 against Aromatase [3] was found to be 61.5 nM. The molecule also registered an inhibition at 2.5 µM in series [2] of 37%. Turning to `CCn1ccc2cc(Br)cc(C(c3ccc(F)cc3)n3ccnc3)c21` (stereo unspecified), at Aromatase [1], the IC50 was 200 nM. The inhibition at 2.5 µM in series [2] was 9%. The molecule `CCN1CCc2cccc(C(c3ccc(F)cc3)n3cncn3)c21` (stereo unspecified) gave an IC50 against Aromatase [1] of 2900 nM. Also, on Aromatase [4], the Relative potency stood at 10. At Aromatase [1], `CCn1ccc2cccc(C(c3ccc(F)cc3)n3ccnc3)c21` (stereo unspecified) showed an IC50 of 62 nM. Besides, 2.5 µM produced 37% inhibition in series [2].

Source of the values: ChEMBL document CHEMBL1136431, “Preparation and pharmacological profile of 7-(alpha-azolylbenzyl)-1H-indoles and indolines as new aromatase inhibitors” (Bioorg Med Chem Lett, 2003).
